Experimental data taken from patent US10392368B2, “Pyrazolo and triazolo bicyclic compounds as JAK kinase inhibitors” (THERAVANCE BIOPHARMA R&D IP, LLC, priority 2017, dated 2019).

What was measured:
JAK3 = molecular target: T1, JAK3 (Homo sapiens, UniProt P52333); assay: Biochemical JAK3 kinase assay (LanthaScreen); design: GST; purchased Life Technologies
T1 sequence (P52333 1-1124): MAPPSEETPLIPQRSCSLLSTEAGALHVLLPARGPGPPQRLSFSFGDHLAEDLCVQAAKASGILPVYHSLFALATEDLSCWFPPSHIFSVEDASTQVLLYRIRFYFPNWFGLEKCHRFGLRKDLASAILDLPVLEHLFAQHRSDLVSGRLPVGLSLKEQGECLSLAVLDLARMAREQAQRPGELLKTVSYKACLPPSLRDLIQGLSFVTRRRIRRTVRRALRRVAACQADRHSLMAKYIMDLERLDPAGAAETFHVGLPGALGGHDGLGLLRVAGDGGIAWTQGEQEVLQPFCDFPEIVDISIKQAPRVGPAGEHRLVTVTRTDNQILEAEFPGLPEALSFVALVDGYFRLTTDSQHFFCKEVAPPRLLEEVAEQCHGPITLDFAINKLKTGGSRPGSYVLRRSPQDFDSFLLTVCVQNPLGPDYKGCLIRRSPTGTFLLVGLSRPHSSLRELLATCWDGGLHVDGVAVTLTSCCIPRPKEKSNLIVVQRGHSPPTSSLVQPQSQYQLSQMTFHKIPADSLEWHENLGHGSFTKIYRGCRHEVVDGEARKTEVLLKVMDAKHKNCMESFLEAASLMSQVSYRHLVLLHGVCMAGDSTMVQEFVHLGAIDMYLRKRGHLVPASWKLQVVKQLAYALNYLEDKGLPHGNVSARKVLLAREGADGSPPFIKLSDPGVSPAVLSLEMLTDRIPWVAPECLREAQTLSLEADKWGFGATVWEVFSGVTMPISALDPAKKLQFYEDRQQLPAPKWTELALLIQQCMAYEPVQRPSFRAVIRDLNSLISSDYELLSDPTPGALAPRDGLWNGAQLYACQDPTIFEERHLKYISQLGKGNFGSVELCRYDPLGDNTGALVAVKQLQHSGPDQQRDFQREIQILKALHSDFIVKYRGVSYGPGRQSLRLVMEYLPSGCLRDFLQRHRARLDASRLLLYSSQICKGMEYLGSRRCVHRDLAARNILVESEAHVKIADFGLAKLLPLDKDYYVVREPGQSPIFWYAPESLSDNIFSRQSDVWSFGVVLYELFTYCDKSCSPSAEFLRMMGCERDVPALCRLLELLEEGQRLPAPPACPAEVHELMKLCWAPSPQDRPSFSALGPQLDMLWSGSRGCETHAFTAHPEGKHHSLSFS
Method in brief: (§1)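 GST-JAK + GFP-STAT1 peptide + cpd, 1 h preinc RT; ATP start, 1% DMSO, 1 h RT; stop 10 mM EDTA + 2 nM Tb-anti-pSTAT1; 1 h; TR-FRET 520/495. % inhib vs DMSO/background → IC50 (4-PL) → pKi (Cheng-Prusoff).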

[1] = system: IL-2 stimulated pSTAT5 in Tall-1 T cells; assay: Cellular JAK3 potency assay: inhibition of IL-2 stimulated pSTAT5 in Tall-1 T cells; assay type: cell-based, human; conditions: IL-2 stimulated pSTAT5, Tall-1 T cells
Method in brief: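 In human Tall-1 T cells, IL-2 (300 ng/ml final, 30 min) drives STAT5 phosphorylation after a 1 h compound pretreatment. Lysates are assayed for pSTAT5 by AlphaLisa, and IC50 derived from signal versus concentration is expressed as pIC50.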

Tyk2 = molecular target: T2, Tyk2 (Homo sapiens, UniProt P29597); assay: Biochemical Tyk2 kinase assay (LanthaScreen)
T2 construct: GST; purchased Life Technologies
T2 sequence (P29597 whole entry): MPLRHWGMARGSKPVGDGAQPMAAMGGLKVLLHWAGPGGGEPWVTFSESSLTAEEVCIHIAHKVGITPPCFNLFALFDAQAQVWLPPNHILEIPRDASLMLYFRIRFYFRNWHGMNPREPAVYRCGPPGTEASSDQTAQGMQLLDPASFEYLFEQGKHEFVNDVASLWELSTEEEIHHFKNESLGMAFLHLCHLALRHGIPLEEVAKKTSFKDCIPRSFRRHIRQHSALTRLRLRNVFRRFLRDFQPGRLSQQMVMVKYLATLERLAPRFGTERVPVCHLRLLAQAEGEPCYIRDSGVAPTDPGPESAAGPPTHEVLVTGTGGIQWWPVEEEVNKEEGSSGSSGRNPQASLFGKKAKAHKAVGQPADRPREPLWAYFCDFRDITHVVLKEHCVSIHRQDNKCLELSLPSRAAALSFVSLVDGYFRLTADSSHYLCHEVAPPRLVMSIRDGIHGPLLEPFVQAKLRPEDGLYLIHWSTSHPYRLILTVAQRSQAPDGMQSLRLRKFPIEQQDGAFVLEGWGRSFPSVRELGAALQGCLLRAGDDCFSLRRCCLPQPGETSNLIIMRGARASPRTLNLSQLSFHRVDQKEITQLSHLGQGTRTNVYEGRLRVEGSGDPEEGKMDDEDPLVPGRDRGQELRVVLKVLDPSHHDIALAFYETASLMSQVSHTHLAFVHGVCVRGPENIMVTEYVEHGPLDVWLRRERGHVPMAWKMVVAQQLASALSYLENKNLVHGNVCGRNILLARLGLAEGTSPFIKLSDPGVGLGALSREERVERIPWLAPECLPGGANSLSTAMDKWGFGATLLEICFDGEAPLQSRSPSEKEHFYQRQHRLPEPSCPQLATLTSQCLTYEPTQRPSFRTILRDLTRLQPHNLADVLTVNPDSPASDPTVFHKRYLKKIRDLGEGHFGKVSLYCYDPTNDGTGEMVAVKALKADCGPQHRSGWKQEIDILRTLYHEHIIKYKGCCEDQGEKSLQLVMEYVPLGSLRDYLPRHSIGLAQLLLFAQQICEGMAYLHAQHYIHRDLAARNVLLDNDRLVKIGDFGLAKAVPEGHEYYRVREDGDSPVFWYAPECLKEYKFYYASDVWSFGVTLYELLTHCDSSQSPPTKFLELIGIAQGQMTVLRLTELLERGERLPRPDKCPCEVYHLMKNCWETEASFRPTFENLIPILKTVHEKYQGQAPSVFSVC
Method in brief: as §1

[2] = system: oxazolone-induced colitis; assay: Mouse model of oxazolone-induced colitis; assay type: in vivo; conditions: 3 mg/kg (PO, BID)
Experimental: Oxazolone-induced colitis is an experimental model that has a histological resemblance to human ulcerative colitis (Heller et al. Immunology, 2002, 17, 629-638). Adult BALB/C mice from Harlan were used in the assay. On day 1, animals were lightly anesthetized with isoflurane and the hairs between the shoulder were carefully removed before oxazolone (4%, 150 μL, 4:1 acetone:olive oil formulation) or vehicle solution was slowly applied for skin sensitization. Seven days after skin sensitization, the mice were fasted around 6 hours prior, anesthetized with ketamine/xylazine injection, and a 1 mL syringe equipped with a 3.5-F catheter, filled with oxazolone solution, was inserted carefully about 4 cm into the colon of the mouse. Following insertion, 50 μL of the oxazolone solution (0.8% in 1:1 ethanol:water formulation) was injected very slowly (over 30 sec using an injection pump) into the colon. Drug treatment (PO, QD or BID or TID) or vehicle was initiated a day prior to the oxazolone intrarectal (IR) challenge. Two-day post oxazolone intrarectal challenge, the disease was assessed by treatment-blinded experimenters for each mouse according to the criteria score: stool consistency score (0, normal; 2, loose; 4, diarrhea), gross bleeding score (0, absence; 2, blood tinged; 4, presence); Combined stool score endpoint=stool consistency score+stool blood score.
Select compounds were tested in the assay.

JAK1 = molecular target: T3, JAK1 (Homo sapiens, UniProt P23458); assay: Biochemical JAK1 kinase assay (LanthaScreen)
T3 construct: GST; purchased Life Technologies
T3 sequence (P23458 whole entry): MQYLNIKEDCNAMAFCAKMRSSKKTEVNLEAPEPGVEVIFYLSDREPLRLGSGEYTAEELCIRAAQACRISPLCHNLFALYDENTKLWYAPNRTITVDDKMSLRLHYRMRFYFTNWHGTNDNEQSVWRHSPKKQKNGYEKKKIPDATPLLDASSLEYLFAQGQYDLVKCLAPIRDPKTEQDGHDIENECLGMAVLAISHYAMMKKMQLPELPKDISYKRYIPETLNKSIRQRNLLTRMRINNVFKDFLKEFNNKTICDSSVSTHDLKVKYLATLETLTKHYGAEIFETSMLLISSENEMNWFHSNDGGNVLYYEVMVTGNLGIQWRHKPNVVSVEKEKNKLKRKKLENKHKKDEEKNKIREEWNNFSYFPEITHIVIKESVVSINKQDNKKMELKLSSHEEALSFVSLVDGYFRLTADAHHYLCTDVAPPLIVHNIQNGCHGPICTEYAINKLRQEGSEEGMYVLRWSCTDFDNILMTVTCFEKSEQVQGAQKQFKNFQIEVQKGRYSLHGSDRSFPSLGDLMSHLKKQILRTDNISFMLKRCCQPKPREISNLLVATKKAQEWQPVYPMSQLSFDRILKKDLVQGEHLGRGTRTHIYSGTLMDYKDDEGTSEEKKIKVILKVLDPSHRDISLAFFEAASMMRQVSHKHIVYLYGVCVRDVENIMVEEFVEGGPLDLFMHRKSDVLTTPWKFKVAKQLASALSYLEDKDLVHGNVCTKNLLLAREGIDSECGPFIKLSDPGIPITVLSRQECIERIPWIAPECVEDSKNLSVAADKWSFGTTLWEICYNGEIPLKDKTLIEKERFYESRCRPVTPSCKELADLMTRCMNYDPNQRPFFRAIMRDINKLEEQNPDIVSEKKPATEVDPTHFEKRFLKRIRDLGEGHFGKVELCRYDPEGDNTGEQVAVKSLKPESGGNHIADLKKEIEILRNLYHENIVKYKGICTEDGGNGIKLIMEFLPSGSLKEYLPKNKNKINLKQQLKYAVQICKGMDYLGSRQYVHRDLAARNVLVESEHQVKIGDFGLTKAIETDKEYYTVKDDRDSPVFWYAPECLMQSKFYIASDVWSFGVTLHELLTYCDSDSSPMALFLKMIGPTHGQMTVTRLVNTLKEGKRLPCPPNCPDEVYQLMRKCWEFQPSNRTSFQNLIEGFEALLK
Method in brief: as §1

JAK2 = molecular target: T4, JAK2 (Homo sapiens, UniProt O60674); assay: Biochemical JAK2 kinase assay (LanthaScreen)
T4 construct: GST; purchased Life Technologies
T4 sequence (O60674 whole entry): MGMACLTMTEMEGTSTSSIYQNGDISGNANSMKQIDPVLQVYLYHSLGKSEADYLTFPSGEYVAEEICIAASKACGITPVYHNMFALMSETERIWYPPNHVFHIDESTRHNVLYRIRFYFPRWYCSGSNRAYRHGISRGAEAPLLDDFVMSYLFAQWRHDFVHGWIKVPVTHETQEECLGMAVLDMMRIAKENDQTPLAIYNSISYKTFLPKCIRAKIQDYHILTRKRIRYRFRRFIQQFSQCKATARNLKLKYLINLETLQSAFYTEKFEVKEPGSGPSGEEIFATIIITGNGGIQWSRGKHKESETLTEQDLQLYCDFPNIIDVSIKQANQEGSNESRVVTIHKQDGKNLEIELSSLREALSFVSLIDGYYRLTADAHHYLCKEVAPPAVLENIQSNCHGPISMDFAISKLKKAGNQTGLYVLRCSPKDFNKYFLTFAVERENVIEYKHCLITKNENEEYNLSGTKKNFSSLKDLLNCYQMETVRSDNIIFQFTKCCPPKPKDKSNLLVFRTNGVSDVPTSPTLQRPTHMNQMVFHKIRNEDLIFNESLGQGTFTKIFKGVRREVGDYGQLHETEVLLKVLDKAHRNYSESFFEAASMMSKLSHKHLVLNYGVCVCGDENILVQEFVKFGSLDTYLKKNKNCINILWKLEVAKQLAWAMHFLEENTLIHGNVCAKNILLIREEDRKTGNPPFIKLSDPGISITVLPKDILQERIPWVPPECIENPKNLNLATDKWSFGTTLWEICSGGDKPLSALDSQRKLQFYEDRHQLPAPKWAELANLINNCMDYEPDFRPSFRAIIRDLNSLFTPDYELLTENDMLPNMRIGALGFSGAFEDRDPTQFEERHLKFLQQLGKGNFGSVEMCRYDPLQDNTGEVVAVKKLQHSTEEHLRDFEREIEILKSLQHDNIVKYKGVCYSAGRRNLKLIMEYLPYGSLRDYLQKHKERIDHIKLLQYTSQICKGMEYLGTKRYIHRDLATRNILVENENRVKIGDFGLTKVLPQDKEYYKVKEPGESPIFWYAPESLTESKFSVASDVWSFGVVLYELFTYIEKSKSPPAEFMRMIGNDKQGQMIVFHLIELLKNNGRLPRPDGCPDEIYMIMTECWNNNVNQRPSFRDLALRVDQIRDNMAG
Method in brief: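 GST-tagged recombinant JAK2 pre-incubated 1 h at ambient temperature with compound and GFP-STAT1 peptide in HEPES pH 7.5/MgCl2 buffer, then ATP added for a 1 h reaction with 1% DMSO. TR-FRET read after EDTA and Tb-anti-pSTAT1 (pTyr701) addition; IC50 from 4-parameter fit, converted to pKi by Cheng-Prusoff.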

[3] = Colon and plasma mouse pharmacokinetics; assay type: in vivo; conditions: mouse, colon tissue / plasma; male Balb/c mice, 10 mg/kg PO; 0.5, 2 and 6 hours; read-out: colon to plasma ratio (colon AUC to plasma AUC)
Experimental: 6 male Balb/c mice were administered 10 mg/kg of compound in 1% HPMC+0.1% Tween-80 by PO administration. At 0.5, 2 and 6 hours after dose administration, animals were anesthetized, and terminal blood samples were collected by cardiac puncture, followed by collection of colon contents and colon tissue.
Blood samples were collected into K2EDTA and stored on wet ice until processed to plasma by centrifugation (12000 rpm at 4° C.). Plasma samples were transferred to cluster tubes and placed on dry ice prior to freezer storage. The colon contents from each animal were collected at each terminal blood collection time point. The colon tissues were flushed with saline and patted dry. The colon and colon content tissues were homogenized using sterile water containing 0.1% formic acid 9:1 (water:tissue, v/w). The homogenized tissues and colon contents were transferred to cluster tubes and placed on dry ice prior to freezer storage. All samples were analyzed using LC/MS/MS against analytical standards.
The composite pharmacokinetic parameters of the compounds were determined by non-compartmental analysis using Phoenix WinNonlin Version 6 (Certara, St. Louis, Mo.) and using mean values from 2 animals/time point. For plasma concentrations below the quantification limit (BQL), the lowest concentration measurable or the BLOQ (below limit of quantification) was used.
A colon to plasma ratio was determined as the ratio of the colon AUC to the plasma AUC.

[4] = system: IL-2 stimulated pSTAT5 in CD4+ T cells; assay: Inhibition of IL-2 stimulated pSTAT5 in CD4+ T cells isolated from murine splenocytes; assay type: cell-based; conditions: Mus musculus, AlphaLisa, read-out: pIC50, inhibition of IL-2 stimulated pSTAT5 (converted)
Experimental: The potency of test compounds for inhibition of interleukin-2 (IL-2) stimulated STAT5 phosphorylation was measured in the CD4+ T cells isolated from murine splenocytes using AlphaLisa. Because IL-2 signals through JAK3, this assay provides a measure of JAK3 cellular potency in mouse.
Phosphorylated STAT5 was measured via the AlphaLISA SureFire Ultra pSTAT5 (Tyr694/699) kit (PerkinElmer).
CD4+ T cells were isolated from murine splenocytes via negative selection on a magnetic column (Miltnyi Biotec) and re-suspended in assay media (phenol red-free DMEM (Life Technologies) supplemented with 10% FBS (ATCC)). Cells were seeded at 50,000 cells/well in assay media (2 μL/well). Compounds were serially diluted in DMSO and diluted to 2× final concentration in assay media. Compound was added (4 μl/well) and the cells incubated at 37° C., 5% CO2 for 1 hour, followed by the addition of IL-2 (R&D Systems; final concentration 7 ng/ml) in pre-warmed assay media (2 μL) for 30 minutes. After cytokine stimulation, cells were lysed with 2 μl of 5× AlphaLisa Lysis Buffer (PerkinElmer). The lysate was shaken at 900 rpm for 10 minutes at room temperature (RT). Phosphorylated STAT5 was measured via the pSTAT5 AlphaLisa kit (PerkinElmer). Freshly prepared acceptor bead mixture was dispensed onto lysate (5 ul) under green filtered <100 lux light. Plates were shaken at 900 rpm for 2 mins, briefly spun down, and incubated for 2 hrs at RT in the dark. Donor beads were dispensed (5 μl) under green filtered <100 lux light. Plates were shaken at 900 rpm for 2 mins, briefly spun down, and incubated overnight at RT in the dark. Luminescence was measured with excitation at 689 nm and emission at 570 nm using an EnVision plate reader (PerkinElmer) under green filtered <100 lux light.
To determine the inhibitory potency of test compounds in response to IL-2, the average emission intensity of beads bound to pSTAT5 was measured in primary CD4+ T cells isolated from murine splenocytes. IC50 values were determined from analysis of the inhibition curves of signal intensity vs compound concentration. Data are expressed as pIC50 (negative decadic logarithm IC50) values (mean±standard deviation).

[5] = Dynamic moisture sorption (DMS) assessment; assay type: physicochemical; conditions: 25° C.; for hygroscopicity: DMS, 5% to 90% relative humidity; for weight gain (moisture uptake): humidity range of 5% to 90% relative humidity
Experimental: Dynamic moisture sorption (DMS) measurements were performed using a VTI atmospheric microbalance, SGA-100 system (VTI Corp., Hialeah, Fla. 33016). A weighed sample was used and the humidity was lowest possible value (close to 0% RH) at the start of the analysis. The DMS analysis consisted of an initial drying step (0% RH) for 120 minutes, followed by two cycles of sorption and desorption with a scan rate of 5% RH/step over the humidity range of 5% RH to 90% RH. The DMS run was performed isothermally at 25° C.

C=CC(=O)N1CC2(CC(Oc3nc(-c4ccc(O)cc4)nc4[nH]ncc34)C2)C1 [Compound 15-3]
JAK 3 (pKi) (JAK3): A (a pKi value≥10 (Ki≤0.1 nM)) | JAK3 (pKi)-JAK1 (pKi) (JAK3; selectivity JAK3 over JAK1, difference of pKi): A (a value of 3 or above) | Tall-1 (pIC50) [1]: A (a pIC50 value≥7.5 (IC50≤32 nM)) | Tyk 2 (pKi) (Tyk2): E (a pKi value of 7 or below (Ki of 100 nM or above)) | combined stool score endpoint as compared with vehicle treated animals [2]: statistically significant decrease | JAK 1 (pKi) (JAK1): E (a pKi value of 7 or below (Ki of 100 nM or above)) | JAK 2 (pKi) (JAK2): E (a pKi value of 7 or below (Ki of 100 nM or above))

CN(C)C/C=C/C(=O)N1CC(C(C)(C)Oc2cc(-c3ccc(O)c(F)c3)cc3[nH]ncc23)C1 [Compound 19, (E)-1-(3-(2-((6-(3-fluoro-4-hydroxyphenyl)-1H-indazol-4-yl)oxy)propan-2-yl)azetidin-1-yl)-4-(dimethylamino)but-2-en-1-one]
Kp [3]: > 200 | combined stool score endpoint as compared with vehicle treated animals [2]: statistically significant decrease | IC50 [4]: < 1000 nM

CN(C)C/C=C/C(=O)N1CC(C(C)(C)Oc2cc(-c3ccc(O)c(Cl)c3)cc3[nH]ncc23)C1 [Form 1, (E)-1-(3-(2-((6-(3-chloro-4-hydroxyphenyl)-1H-indazol-4-yl)oxy)propan-2-yl)azetidin-1-yl)-4-(dimethylamino)but-2-en-1-one]
hygroscopicity [5]: slightly hygroscopic | weight gain (moisture uptake) [5]: about 1.62%

CN(C)C/C=C/C(=O)N1CC(C(C)(C)Oc2cc(-c3ccc(O)c(Cl)c3)cc3[nH]ncc23)C1 [Form 2, (E)-1-(3-(2-((6-(3-chloro-4-hydroxyphenyl)-1H-indazol-4-yl)oxy)propan-2-yl)azetidin-1-yl)-4-(dimethylamino)but-2-en-1-one]
weight gain (moisture uptake) [5]: 7.99%

CN(C)C/C=C/C(=O)N1CC(COc2cc(-c3ccc(O)cc3)cc3[nH]ncc23)C1 [Form 3, (E)-4-(dimethylamino)-1-(3-(((6-(4-hydroxyphenyl)-1H-indazol-4-yl)oxy)methyl)azetidin-1-yl)but-2-en-1-one]
hygroscopicity [5]: non-hygroscopic | weight gain (moisture uptake) [5]: about 0.33%

CN(C)C/C=C/C(=O)N1CC(COc2cc(-c3ccc(O)cc3)cc3[nH]ncc23)C1 [Form 4, (E)-4-(dimethylamino)-1-(3-(((6-(4-hydroxyphenyl)-1H-indazol-4-yl)oxy)methyl)azetidin-1-yl)but-2-en-1-one]
hygroscopicity [5]: moderately hygroscopic | weight gain (moisture uptake) [5]: about 5.01%
